Assay results as given in US20230278972A1, “SUBSTITUTED HALOALKYL SULFONANILIDE HERBICIDES” (FMC Corporation, priority 2020, published 2023).

Assays:
[1] = system: galium (catchweed bedstraw, Galium aparine); test: Test A postemergence, galium; format: in vivo; conditions: Galium, post-emergence, 240 h, Postemergence, 0 to 100 scale (0 no effect, 100 complete control), read-out: Plant response rating, Galium
Summary of the method: (§1)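 Formulated with a surfactant in a non-phytotoxic solvent, compounds are applied to loam–sand pots, either to bare soil immediately after seeding (preemergence) or to seedlings of 2 to 10 cm bearing one to two leaves (postemergence).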

[2] = system: barnyardgrass (Echinochloa crus-galli); test: Test B flooded paddy test, barnyardgrass; conditions: 336 h, read-out: Plant response rating, Barnyardgrass
[3] = system: blackgrass (Alopecurus myosuroides); test: Test A postemergence, blackgrass; format: in vivo; conditions: Alopecurus myosuroides, post-emergence, 240 h, Postemergence, 0 to 100 scale (0 no effect, 100 complete control), read-out: Plant response rating, Blackgrass
Summary of the method: (§2)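 Postemergence ratings come from foliar sprays onto one- to two-leaf plants of 2 to 10 cm grown in loam/sand; preemergence ratings come from a directed spray onto the soil of newly seeded pots. Formulation was a surfactant-containing non-phytotoxic solvent blend.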

[4] = system: Ryegrass, Italian (Italian ryegrass, Lolium multiflorum); test: Test A preemergence, Ryegrass, Italian; format: in vivo; conditions: Lolium multiflorum, pre-emergence, 240 h, Preemergence
Summary of the method: as §2

[5] = system: barnyardgrass (Echinochloa crus-galli); test: Test A postemergence, barnyardgrass; format: in vivo; conditions: Echinochloa crus-galli, post-emergence, 240 h, Postemergence, 0 to 100 scale (0 no effect, 100 complete control), read-out: Plant response rating, Barnyardgrass
Summary of the method: as §1

[6] = 500 g ai/ha, visual injury approx. 10 days

For Cc1cc(C)c(C(=O)N2CCC(F)(F)CC2)cc1NS(=O)(=O)C(F)(F)F [Compound 241, N-[5-[(4,4-Difluoro-1-piperidinyl)carbonyl]-2,4-dimethylphenyl]-1,1,1-trifluoromethanesulfonamide], the pest or weed control at 125 g/ha ([1]; 125 g ai/ha) was 80%, the pest or weed control at 500 g/ha [1, 6] was 90% and the pest or weed control at 250 g/ha [2] was 25%. It also gave a pest or weed control at 125 g/ha ([3]; 125 g ai/ha) of 0%, a pest or weed control at 500 g/ha [3, 6] of 80% and a pest or weed control at 125 g/ha ([4]; 125 g ai/ha, visual injury, 0 to 100 scale (0 no effect, 100 complete control), approx. 10 days, read-out: Plant response rating, Ryegrass, Italian) of 70%. The pest or weed control at 500 g/ha ([4]; 500 g ai/ha, visual injury on 0 to 100 scale (0 no effect, 100 complete control), approximately 10 days, read-out: Ryegrass, Italian plant response rating) was 100%, the pest or weed control at 125 g/ha ([5]; 125 g ai/ha) was 60% and the pest or weed control at 500 g/ha [5, 6] was 90%.
